From US20160158200A1, “Combinations of Hepatitis C Virus Inhibitors” (priority 2013, published 2016)

Each molecule was assayed on HCV genotype-1a variant with glutamine 30 changed to glutamate in the NS5A protein. Conditions: test compound titrated with BMS-790052 fixed at 200 nM; genotype 1a Q30E replicon.
Assay type: cell-based
Method in brief: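 Synergy was assessed by combining several fixed amounts of an NS5A-targeting compound with a titration of the second compound of interest.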
In the case of `C[C@H]1C[C@@H](c2nc(-c3ccc(-c4ccc(-c5c[nH]c([C@@H]6C[C@H](C)CN6C(=O)C(=O)N6CCC(F)(F)CC6)n5)cc4)cc3)c[nH]2)N(C(=O)C(=O)N2CCC(F)(F)CC2)C1` [Compound L-143], the “Fold-Synergistic 1a (Q30E)” value is reported as greater than 100 fold. In the case of `CC(C)C(NC(=O)C1CC(F)CN1C(=O)OC(C)(C)C)c1nc(-c2ccc(-c3ccc(-c4c[nH]c(C(NC(=O)C5CC(F)CN5C(=O)OC(C)(C)C)C(C)C)n4)cc3)cc2)c[nH]1` (stereo not shown) [Compound W-181], the “Fold-Synergistic 1a (Q30E)” value is reported as greater than 100 fold. `Cc1cccc(C(=O)N[C@H](c2ncc(-c3ccc(-c4ccc(-c5cnc([C@@H](NC(=O)c6cccc(C)n6)C(C)C)[nH]5)cc4)cc3)[nH]2)C(C)C)n1` [Compound S-48] was tested, and the “Fold-Synergistic 1a (Q30E)” value was greater than 100 fold. With `CC(C)(C)[C@H](NC(=O)C1(NCC(F)(F)F)CC1)c1nc(-c2ccc(-c3ccc(-c4c[nH]c([C@@H](NC(=O)C5(NCC(F)(F)F)CC5)C(C)(C)C)n4)cc3)cc2)c[nH]1` [Compound L-96] the “Fold-Synergistic 1a (Q30E)” value was greater than 100 fold. With `O=C(Oc1ccc2ccccc2c1)N1CCC[C@H]1c1ncc(-c2ccc(-c3ccc(-c4cnc([C@@H]5CCCN5C(=O)Oc5ccc6ccccc6c5)[nH]4)cc3)cc2)[nH]1` [Compound S-226] the “Fold-Synergistic 1a (Q30E)” value was greater than 100 fold. With `CC(C)(C)[C@H](NC(=O)C1C2CC(F)(F)CC21)c1nc(-c2ccc(-c3ccc(-c4c[nH]c([C@@H](NC(=O)C5C6CC(F)(F)CC65)C(C)(C)C)n4)cc3)cc2)c[nH]1` (stereo partly shown) [Compound Y-7] the “Fold-Synergistic 1a (Q30E)” value was greater than 100 fold. With `CC(C)(C)C(NC(=O)C(O)C1CCCCC1)c1nc(-c2ccc(-c3ccc(-c4c[nH]c(C(NC(=O)C(O)C5CCCCC5)C(C)(C)C)n4)cc3)cc2)c[nH]1` [Compound L-74] the “Fold-Synergistic 1a (Q30E)” value was greater than 100 fold. For `COc1cccc(CC(=O)N[C@H](c2ncc(-c3ccc(-c4ccc(-c5cnc([C@@H](NC(=O)Cc6cccc(OC)c6)C(C)C)[nH]5)cc4)cc3)[nH]2)C(C)C)c1` [Compound S-40], the “Fold-Synergistic 1a (Q30E)” value was greater than 100 fold. With `CCOC(=O)C(=O)N[C@H](c1nc(-c2ccc(-c3ccc(-c4c[nH]c([C@@H](NC(=O)C(=O)OCC)C(C)(C)C)n4)cc3)cc2)c[nH]1)C(C)(C)C` [Compound W-30] the “Fold-Synergistic 1a (Q30E)” value was greater than 100 fold. With `Cc1cccc(C(=O)N[C@H](c2ncc(-c3ccc(-c4ccc(-c5cnc([C@@H](NC(=O)c6cccc(C)c6)C(C)C)[nH]5)cc4)cc3)[nH]2)C(C)C)c1` [Compound S-80] the “Fold-Synergistic 1a (Q30E)” value was greater than 100 fold. `COC(C)(CCO)C(=O)N[C@H](c1nc(-c2ccc(-c3ccc(-c4c[nH]c([C@@H](NC(=O)C(C)(CCO)OC)C(C)(C)C)n4)cc3)cc2)c[nH]1)C(C)(C)C` (single isomer, unassigned) [Compound W-258] was tested, and the “Fold-Synergistic 1a (Q30E)” value was greater than 100 fold. For `CC(C)[C@H](NC(=O)[C@H](NC(=O)OC1CCCC1)C(C)C)c1ncc(-c2ccc(-c3ccc(-c4cnc([C@@H](NC(=O)[C@H](NC(=O)OC5CCCC5)C(C)C)C(C)C)[nH]4)cc3)cc2)[nH]1` [Compound S-251], the “Fold-Synergistic 1a (Q30E)” value was greater than 100 fold. With `CC(C)(C)[C@H](NC(=O)OC1CCC(F)(F)CC1)c1nc(-c2ccc(-c3ccc(-c4c[nH]c([C@@H](NC(=O)OC5CCC(F)(F)CC5)C(C)(C)C)n4)cc3)cc2)c[nH]1` [Compound P-138] the “Fold-Synergistic 1a (Q30E)” value was greater than 100 fold. For `CC1(C(NC(=O)C(C)(C)C(O)C2CC(F)(F)C2)c2nc(-c3ccc(-c4ccc(-c5c[nH]c(C(NC(=O)C(C)(C)C(O)C6CC(F)(F)C6)C6(C)CC6)n5)cc4)cc3)c[nH]2)CC1` (mixture of isomers) [Compound N-157], the “Fold-Synergistic 1a (Q30E)” value was greater than 100 fold. With `CC(C)[C@H](NC(=O)c1ccc(Cl)s1)c1ncc(-c2ccc(-c3ccc(-c4cnc([C@@H](NC(=O)c5ccc(Cl)s5)C(C)C)[nH]4)cc3)cc2)[nH]1` [Compound P-91] the “Fold-Synergistic 1a (Q30E)” value was greater than 100 fold. `CC(C)(C)C(NC(=O)C1CCCO1)c1nc(-c2ccc(-c3ccc(-c4c[nH]c(C(NC(=O)C5CCCO5)C(C)(C)C)n4)cc3)cc2)c[nH]1` [Compound L-65] was tested, and the “Fold-Synergistic 1a (Q30E)” value was greater than 100 fold. In the case of `CC(C)(C)OC(=O)N1CCCC[C@H]1C(=O)N[C@H](c1nc(-c2ccc(-c3ccc(-c4c[nH]c([C@@H](NC(=O)[C@@H]5CCCCN5C(=O)OC(C)(C)C)C(C)(C)C)n4)cc3)cc2)c[nH]1)C(C)(C)C` [Compound L-17], the “Fold-Synergistic 1a (Q30E)” value is reported as greater than 100 fold. In the case of `COC(C)(CCOCc1ccccc1)C(=O)N[C@H](c1nc(-c2ccc(-c3ccc(-c4c[nH]c([C@@H](NC(=O)C(C)(CCOCc5ccccc5)OC)C(C)(C)C)n4)cc3)cc2)c[nH]1)C(C)(C)C` (single isomer, unassigned) [Compound W-256b], the “Fold-Synergistic 1a (Q30E)” value is reported as greater than 100 fold. `COC(=O)N(C)CC1(C(=O)N[C@H](c2nc(-c3ccc(-c4ccc(-c5c[nH]c([C@@H](NC(=O)C6(CN(C)C(=O)OC)CC6)C(C)(C)C)n5)cc4)cc3)c[nH]2)C(C)(C)C)CC1` [Compound L-41] was tested, and the “Fold-Synergistic 1a (Q30E)” value was greater than 100 fold. With `O=C(Oc1ccccc1)N1CCC[C@H]1c1ncc(-c2ccc(-c3ccc(-c4cnc([C@@H]5CCCN5C(=O)Oc5ccccc5)[nH]4)cc3)cc2)[nH]1` [Compound S-223] the “Fold-Synergistic 1a (Q30E)” value was greater than 100 fold. In the case of `CC(C)[C@H](NC(=O)C(C)(C)CF)c1ncc(-c2ccc(-c3ccc(-c4cnc([C@@H](NC(=O)C(C)(C)CF)C(C)C)[nH]4)cc3)cc2)[nH]1` [Compound P-72], the “Fold-Synergistic 1a (Q30E)” value is reported as greater than 100 fold. `CC(C)(C)[C@H](NC(=O)C1(O)CCC(F)(F)CC1)c1nc(-c2ccc(-c3ccc(-c4c[nH]c([C@@H](NC(=O)C5(O)CCC(F)(F)CC5)C(C)(C)C)n4)cc3)cc2)c[nH]1` [Compound P-33] was tested, and the “Fold-Synergistic 1a (Q30E)” value was greater than 100 fold. In the case of `CC(C)(C)[C@H](NC(=O)C1CC1(F)F)c1nc(-c2ccc(-c3ccc(-c4c[nH]c([C@@H](NC(=O)C5CC5(F)F)C(C)(C)C)n4)cc3)cc2)c[nH]1` (stereo partly shown) [Compound N-45a], the “Fold-Synergistic 1a (Q30E)” value is reported as greater than 100 fold. `CC(C)(C)[C@H](NC(=O)C1CC(F)(F)C1)c1nc(-c2ccc(-c3ccc(-c4c[nH]c([C@@H](NC(=O)C5CC(F)(F)C5)C(C)(C)C)n4)cc3)cc2)c[nH]1` [Compound P-17] was tested, and the “Fold-Synergistic 1a (Q30E)” value was greater than 100 fold. In the case of `CC(C)(C)C(NC(=O)C1C(c2ccccc2)C1c1ccccc1)c1nc(-c2ccc(-c3ccc(-c4c[nH]c(C(NC(=O)C5C(c6ccccc6)C5c5ccccc5)C(C)(C)C)n4)cc3)cc2)c[nH]1` (mixture of isomers) [Compound S-271], the “Fold-Synergistic 1a (Q30E)” value is reported as greater than 100 fold. `COC(=O)N[C@H](CC(C)C)C(=O)N[C@H](c1ncc(-c2ccc(-c3ccc(-c4cnc([C@@H](NC(=O)[C@@H](CC(C)C)NC(=O)OC)C(C)C)[nH]4)cc3)cc2)[nH]1)C(C)C` [Compound P-105] was tested, and the “Fold-Synergistic 1a (Q30E)” value was greater than 100 fold. For `CC(C)[C@H](NC(=O)c1cnccn1)c1ncc(-c2ccc(-c3ccc(-c4cnc([C@@H](NC(=O)c5cnccn5)C(C)C)[nH]4)cc3)cc2)[nH]1` [Compound S-15], the “Fold-Synergistic 1a (Q30E)” value was greater than 10 fold. With `CC(C)[C@H](NC(=O)C(C)(C)OCC(F)F)c1nc(-c2ccc(-c3ccc(-c4c[nH]c([C@@H](NC(=O)C(C)(C)OCC(F)F)C(C)C)n4)cc3F)cc2)c[nH]1.O=C(O)C(F)(F)F` [Compound N-98] the “Fold-Synergistic 1a (Q30E)” value was greater than 100 fold. `CC(C)[C@H](NC(=O)C(=O)C1(C)CCCO1)c1ncc(-c2ccc(-c3ccc(-c4cnc([C@@H](NC(=O)C(=O)C5(C)CCCO5)C(C)C)[nH]4)cc3)cc2)[nH]1` (stereo partly shown) [Compound P-118] was tested, and the “Fold-Synergistic 1a (Q30E)” value was greater than 100 fold. With `C[C@H]1CCN(C(=O)C(=O)N2CCC(F)(F)CC2)C1c1nc(-c2ccc(-c3ccc(-c4c[nH]c(C5[C@@H](C)CCN5C(=O)C(=O)N5CCC(F)(F)CC5)n4)cc3)cc2)c[nH]1` (stereo partly shown) [Compound W-186] the “Fold-Synergistic 1a (Q30E)” value was greater than 100 fold. For `CC(C)(C)[C@H](NCC1CCCCC1)c1nc(-c2ccc(-c3ccc(-c4c[nH]c([C@@H](NCC5CCCCC5)C(C)(C)C)n4)cc3)cc2)c[nH]1.O=C(O)C(F)(F)F` [Compound L-2], the “Fold-Synergistic 1a (Q30E)” value was greater than 100 fold. With `CC(C)[C@H](NC(=O)C(C)(C)C(O)C1CC(F)(F)C1)c1nc(-c2ccc(-c3ccc(-c4c[nH]c([C@@H](NC(=O)C(C)(C)C(O)C5CC(F)(F)C5)C(C)C)n4)cc3)cc2)c[nH]1` (single isomer, unassigned) [Compound N-145C] the “Fold-Synergistic 1a (Q30E)” value was greater than 100 fold. In the case of `CC(C)(C)[C@H](NC(=O)C1CCCCO1)c1nc(-c2ccc(-c3ccc(-c4c[nH]c([C@@H](NC(=O)C5CCCCO5)C(C)(C)C)n4)cc3)cc2)c[nH]1` (stereo partly shown) [Compound Y-5], the “Fold-Synergistic 1a (Q30E)” value is reported as greater than 100 fold. For `CC(C)[C@H](NC(=O)c1ccc(C(F)(F)F)nc1)c1ncc(-c2ccc(-c3ccc(-c4cnc([C@@H](NC(=O)c5ccc(C(F)(F)F)nc5)C(C)(C)C)[nH]4)cc3)cc2)[nH]1` [Compound Y-47], the “Fold-Synergistic 1a (Q30E)” value was greater than 100 fold. For `CC(C)(C)COC(=O)N1CCC[C@H]1c1ncc(-c2ccc(-c3ccc(-c4cnc([C@@H]5CCCN5C(=O)OCC(C)(C)C)[nH]4)cc3)cc2)[nH]1` [Compound S-221], the “Fold-Synergistic 1a (Q30E)” value was greater than 10 fold. In the case of `CC(C)[C@H](NC(=O)c1ccc(F)c(F)c1)c1ncc(-c2ccc(-c3ccc(-c4cnc([C@@H](NC(=O)c5ccc(F)c(F)c5)C(C)C)[nH]4)cc3)cc2)[nH]1` [Compound S-16], the “Fold-Synergistic 1a (Q30E)” value is reported as greater than 100 fold. With `CN(C(=O)C(=O)N[C@H](c1nc(-c2ccc(-c3ccc(-c4c[nH]c([C@@H](NC(=O)C(=O)N(C)C5CC5)C(C)(C)C)n4)cc3)cc2)c[nH]1)C(C)(C)C)C1CC1` [Compound W-50] the “Fold-Synergistic 1a (Q30E)” value was greater than 100 fold. For `CC(C)[C@H](NC(=O)[C@H](NC(=O)OCc1ccccc1)C(C)C)c1ncc(-c2ccc(-c3ccc(-c4cnc([C@@H](NC(=O)[C@H](NC(=O)OCc5ccccc5)C(C)C)C(C)C)[nH]4)cc3)cc2)[nH]1` [Compound S-245], the “Fold-Synergistic 1a (Q30E)” value was greater than 100 fold. In the case of `COC(=O)N[C@H](C(=O)NC1(c2nc(-c3ccc(-c4ccc(-c5c[nH]c(C6(NC(=O)[C@@H](NC(=O)OC)C(C)C)CCC6)n5)cc4)cc3)c[nH]2)CCC1)C(C)C` [Compound N-10], the “Fold-Synergistic 1a (Q30E)” value is reported as less than 10 fold. For `CC(COCc1ccccc1)(OCCF)C(=O)N[C@H](c1nc(-c2ccc(-c3ccc(-c4c[nH]c([C@@H](NC(=O)C(C)(COCc5ccccc5)OCCF)C(C)(C)C)n4)cc3)cc2)c[nH]1)C(C)(C)C` (single isomer, unassigned) [Compound W-261b], the “Fold-Synergistic 1a (Q30E)” value was greater than 100 fold.
